Results from patent publication US8703936B2, “Compositions and methods for modification of biomolecules” (The Regents of the University of California, priority 2010, dated 2014).
Several values for one entry are separate records, joined by “and”; a condition that tells them apart may be missing. Equal values may be shown once.

Legend:
[1] = Reaction rate of BARAC with benzyl azide (1H NMR kinetics); type: physicochemical
Procedure: The reactivity of BARAC (compound 15) was studied using benzyl azide as a model substrate. The second-order rate constant in acetonitrile at room temperature (rt) was 0.96 M^−1s^−1 (see FIG. 1), over 12-fold higher than the rate constant for DIFO under identical conditions and over 450 times higher than for an unactivated cyclooctyne. The half-life for the reaction of equimolar amounts of BARAC with benzyl azide at 10 mM was about 45 s at rt.
The reaction of BARAC (compound 15) and benzyl azide was monitored by ^1H NMR for 30 min. at 25° C. BARAC and benzyl azide were separately dissolved in CD3CN and mixed together in a 1:1 ratio at concentrations at 10 mM. A 2:1 ratio was used to determine the exact ratio of reagents based on remaining starting material upon completion of the reaction. The percent conversion was calculated by the disappearance of BARAC and benzyl azide relative to the formation of product as determined by integration. No products other than the two regioisomers of addition were apparent by ^1H NMR. The triazole isomers were produced in a ˜1:1 ratio. The second-order rate constant was determined by plotting 1/[compound 15] versus time. The plot was fit to a linear regression and the slope corresponds to the second-order rate constant. Shown in FIG. 1 are data from four replicate experiments.

[2] = Reaction rate of BARAC with 2-azido-N-isopropylacetamide (1H NMR kinetics); type: physicochemical; conditions: CD3CN, 25° C., 1:1 at 9.2 mM, three replicates
Procedure: The reaction of BARAC (compound 15) and 2-azido-N-isopropylacetamide was monitored by ^1H NMR for 30 min. at 25° C. BARAC and the azidoacetamide were separately dissolved in CD3CN and mixed together in a 1:1 ratio at concentrations at close to 10 mM (9.2 mM). Hexamethyldisilane (approx 0.3 equiv) was used as an internal standard. The percent conversion was calculated by the ratio between the formation of products and hexamethyldisilane as determined by integration. No products other than the regioisomers of addition were apparent by ^1H NMR. The ratio of triazole isomers is complicated by rotamers. The second-order rate constant was determined by plotting 1/[compound 15] versus time. The plot was fit to a linear regression and the slope corresponds to the second-order rate constant. Shown are data from three replicate experiments.

[3] = Potential background reaction of BARAC with glutathione; type: physicochemical; conditions: 5 mM glutathione in CD3CN:D2O (1:2), 2 mM BARAC, rt
[4] = Stability to chromatography and storage; type: physicochemical; conditions: traditional chromatography; storage at room temperature
Excerpt: Oxidation of indole (compound 10) with excess m-CPBA opened the central rings to give the cyclic keto-amide (compound 11), which was unstable to silica-gel purification. These reaction conditions left the terminal alkene untouched. Treatment of the potassium enolate of ketone (compound 11) with trifluoromethanesulfonyl anhydride gave compound 12. Selective reaction of the terminal alkene with a nitrile oxide generated in situ from chlorooxime (compound 13) installed a linker for conjugation to a probe molecule as reported by Huisgen, R. and Gutsmiedl, et al. Huisgen, R. Angew. Chem. Int. Ed., (1963), 2, 565-598; and Gutsmiedl, K.; Wirges, C. T.; Ehmke, V.; Carell, T. Org. Lett., 2009, 11, 2405-2408. Reaction of compound 14 with CsF introduced the strained alkyne in under 30 min at rt. The synthesis of BARAC (compound 15) from compound 9 was accomplished in 6 steps in 18% overall yield (see FIG. 11).

[5] = tested on: CHO cells grown with Ac4ManNAz (azide-labeled glycans); test: Cell-surface labeling of azido glycans on CHO cells and imaging by fluorescence microscopy; type: cell-based, Chinese hamster
Procedure: BARAC-Fluor (compound 17) was evaluated as a reagent for direct fluorescence imaging of live Chinese hamster ovary (CHO) cells. CHO cells grown either in the presence or absence of 50 μM Ac4ManNAz were treated with […] BARAC-Fluor (compound 17) for 5 min at rt, washed and then imaged (FIG. 9(a)-(h)).
CHO cells were incubated for 3 days in medium containing 50 μM Ac4ManNAz in an eight-well LabTek II chambered cover glass (Nunc). The medium was poured off, and the cells were washed three times with 200 μl of FACS buffer. The cells then were treated with a solution of BARAC-Fluor, diluted from a 1 mM stock solution in DMSO, in FACS buffer for 5 minutes at 5 μM at room temperature. The cells were also treated with Hoechst 33342 dye to stain the nucleus (1:1,000 dilution in medium of a 1 mg/ml stock solution in DMSO) as soon as possible after the addition of BARAC-Fluor. The cells washed four times with 200 μl of FACS buffer, and imaged at room temperature.
For the no-wash experiment the cells were treated as before, but were incubated in a 250 nM solution of BARAC-Fluor in FACS-buffer. After 25 minutes at room temperature Hoechst 33342 dye (1:1,000 dilution in medium of a 1 mg/ml stock solution in DMSO) was added. After an additional 5 minutes, the cells were imaged without washing away excess reagent. […]

[6] = tested on: Jurkat cells treated with Ac4ManNAz (cell-surface azido sialic acids, SiaNAz)
Procedure: Cultured Jurkat cells were treated with peracetylated N-azidoacetyl mannosamine (Ac4ManNAz) to introduce the corresponding azido sialic acids (SiaNAz) into their cell-surface glycoproteins and lipids.
Jurkat cells were incubated in untreated media or media containing 25 μM Ac4ManNAz. After 3 d, the cells were twice concentrated (500×g, 3 min, 4° C.) and resuspended in 10 mL FACS buffer (PBS containing 1% FCS, 2×10 mL) and cells (approx 350,000 per a well) were placed in a 96 well V-bottom plate. The cells were concentrated by centrifugation (2500×g, 3 min, 4° C.), resuspended in 200 μL cold FACS buffer, and again concentrated by centrifugation (2500×g, 3 min, 4° C.). […] After 1 h, the cells were thrice concentrated by centrifugation (2500×g, 3 min, 4° C.) and resuspended in 200 μL cold FACS buffer. Following and additional concentration by centrifugation (2500×g, 3 min, 4° C.), cells were resuspended in FACS buffer (100 μL) containing FITC-avidin (1:200 dilution of 1 mg/mL stock, Sigma-Aldrich) and incubated in the dark at 4° C. for 15 min. Following the incubation, cells were concentrated by centrifugation, resuspended in 200 μL cold FACS buffer, concentrated by centrifugation, and another FITC-avidin incubation was performed. After the second FITC-avidin labeling, the cells were thrice concentrated by centrifugation (2500×g, 3 min, 4° C.) and resuspended in 200 μL cold FACS buffer. The cells were then diluted to 400 μL for flow cytometry analysis. Flow cytometry was performed on a BD Biosciences FACSCalibur flow cytometer equipped with a 488-nm argon laser. All flow cytometry experiments were performed with three replicate samples.
Jurkat cells were incubated in the presence or absence of 25 μM Ac4ManNAz for 3 d. […] MFI=mean fluorescence intensity and has arbitrary units (Au).
Jurkat cells were incubated with (+Az) or without (−Az) 25 M Ac4ManNAz for 3 days. The cells were labeled with 1 μM cyclooctyne-biotin for various times and then treated with FITC-avidin. […] The degree of labeling was quantified by flow cytometry. The level of fluorescence was reported in mean fluorescence intensity (MFI, arbitrary unit). Error bars represent the standard deviation of three replicate experiments. […] MFI reported as difference between signal of cells +Az and signal of cells −Az.

Jurkat cells = conditions: 1 μM, 1 h at 25° C., 7-AAD (FIG. 5)
Procedure: Jurkat cells were incubated in the presence (+Az, black bar) or absence (−Az, gray bar) of Ac4ManNAz for 3 d. […] Prior to flow cytometry analysis, half the cells were treated with 7-amino-actinomycin D (7-AAD) following the procedure reported at http://www.bdbiosciences.com/external_files/pm/doc/tds/cell_bio/live/web_enabled/68981E—559925.pdf. The samples were diluted and analyzed by flow cytometry. The error bars represent standard deviations from three replicate samples.
In all plots, the x-axis indicates the degree of cell-surface glycan labeling as measured by FITC fluorescence (FL1). For the plots shown if FIG. 6(a)-(d), the y-axis represents the degree of 7-AAD (FL3, cell viability marker).

O=C1c2ccccc2C#Cc2ccccc2N1CC1CC(c2ccc(CO)cc2)=NO1 (stereo not drawn) [BARAC]
second-order rate constant ([1]; benzyl azide, acetonitrile (CD3CN), rt (25° C.), 1:1 at 10 mM): 0.96 M⁻¹ s⁻¹ and 0.96 ± 0.04 M⁻¹ s⁻¹ | times higher rate constant than an unactivated cyclooctyne ([1]; versus unactivated cyclooctyne): over 450 times | second-order rate constant [2]: 0.64 ± 0.06 M⁻¹ s⁻¹ | half-life at 2 mM [3]: 1440 min | stability [4]: stable to traditional chromatography and storage at room temperature

O=C(OCc1ccc(C2=NOC(CN3C(=O)c4ccccc4C#Cc4ccccc43)C2)cc1)N1CCN(C(=O)c2ccccc2-c2c3ccc(=O)cc-3oc3cc(O)ccc23)CC1 (stereo not drawn) [BARAC-Fluor]
labeling in no-wash experiment ([5]; 250 nM, 30 min at rt, imaged without washing (FIG. 9(i)-(p))): significant labeling above the background | cell surface fluorescence of azide-labeled cells ([5]; 5 μM, 5 min at rt, washed, 50 μM Ac4ManNAz (FIG. 9(a)-(h))): significant cell surface fluorescence

BARAC-biotin
cell labeling at low concentration ([6]; 50 nM, 1 h, Jurkat (FIG. 3)): significant cell labeling | labeling compared with DIFO-biotin and DIBO-biotin ([6]; 1 μM cyclooctyne-biotin, after 1 h (FIG. 8(b))): more labeling than DIFO-biotin and DIBO-biotin | fold higher signal than either DIFO-biotin or DIBO-biotin ([6]; 1 μM, after 1 min (FIG. 8(c))): 10 fold | azide-specific cell labeling ([6]; Jurkat ±25 μM Ac4ManNAz 3 d, reagent 1 h, versus FITC-avidin alone (FIG. 3)): robust azide-specific labeling with no significant background labeling | cytotoxicity compared to cells treated with no cyclooctyne reagent (Jurkat cells): not accompanied by any cytotoxicity
